In article PMC8403366, “Functional significance of gain-of-function H19 lncRNA in skeletal muscle differentiation and anti-obesity effects” (Genome Medicine, 2021):

Experiments:
iPSC-SkMC = experiment: Utrophin immunofluorescence in iPSC-SkMC; assay type: cell-based, human; details: vs AGR-Scr, n = 5
Method: For myogenic differentiation, iPSCs were differentiated into skeletal muscle cells using Skeletal Muscle Differentiation Kit (Genea Biocells) according to the manufacturer’s protocol. Briefly, iPSCs were plated onto a collagen I coated plate and maintained for 6–10 days in Skeletal Muscle Induction Medium (Genea Biocells) until confluent. Dissociated myogenic precursors were then plated on a collagen I coated plate and cultured in Skeletal Myoblast Medium (Genea Biocells) for 6–8 days. When confluent, cells were maintained in Myotube Medium or Myotube Fusion Medium (Genea Biocells). Cryopreserved stocks of myoblasts Genea002 were obtained from Genea Biocells. […]
Skeletal muscles were collected and fixed in 10% Neutral Buffered Formalin at 4 °C for 1 h, followed by 10% sucrose/PBS overnight and then 18% sucrose/PBS overnight at 4 °C before being frozen embedded and sectioned. […] Muscle cross-sectional area and fiber numbers were quantified by ImageJ. […] The quantification of IF staining density was performed by Image-pro plus 6.0 (Media Cybernetics) and calculated based on the average staining intensity and the percentage of positively stained cells. To quantify myotube fusion, fusion index was calculated by dividing the number of nuclei in MHC-positive myotubes with ≥ 3 nuclei by the total number of nuclei analyzed in a field.

WT C57BL/6 J mice = experiment: Muscle and fat weights and body composition of treated WT mice; assay type: in vivo, mouse; details: 1 mg/kg i.p. every 3 days, 12 weeks
Method: (§1) To determine the effects of H19-Rgof with a skeletal muscle enrichment peptide agrin (AGR-H19-Rgof) on WT C57BL/6 J or Lep^Ob/Ob mice, AGR-tagged oligonucleotides were used. The synthesis and sequence information of AGR-tagged RNA oligonucleotides are described in “Synthesis of H19-Rgof mimics, AGR-H19-Rgof mimics, and Pharmacokinetics (PK) studies.” AGR-Scr (conjugated to scramble oligonucleotides), H19-Rgof, or AGR-H19-Rgof mimics were injected at a dose of 1 mg/kg intraperitoneally into 3-week-old male and female mice. For AGR-H19-Rgof treatment in HFD (Cat # D12492, Research Diets, Inc.)-fed mice, male C57BL/6 J mice were fed with a HFD starting at 6 weeks of age. The AGR-H19-Rgof and AGR-Scr mimics were injected at a dose of 0.5 or 1 mg/kg intraperitoneally every other day starting 2 weeks after the initiation of HFD feeding. Body weight was measured weekly. The general health condition, grooming, and behavior of all animals were monitored daily, and injection sites were checked for signs of redness or edema.
(§2) Unless otherwise indicated, mice were fasted for 4–6 h, anesthetized with isoflurane, and sacrificed by heart puncture. Tissues were dissected, weighed, and either dipped in liquid nitrogen or fixed for immunohistochemistry analysis. Individual muscle was dissected on one side of the body and weighed. Adipose tissues including white adipose tissue (WAT), visceral adipose tissue (VAT), and brown adipose tissue (BAT) were collected and weighed.
(§3) Whole-body composition parameters were measured in male and female mice fed with either chow or HFD by Faxitron Specimen Radiography System (Faxitron X-Ray Corp.) to precisely measure total body fat and lean mass. Mice were housed in the Oxymax/CLAMS metabolic cage system (Columbus Instruments) for 4 days with ad libitum access to food and water. Volume of oxygen uptake (VO2) and exhaled carbon dioxide (VCO2), respiratory exchange ratio (RER), and activity were measured using the Oxymax system. RER is determined by dividing VCO2 produced by VO2 consumed.

C57BL/6 J mice [1] = experiment: Forelimb grip strength test; assay type: in vivo, mouse; details: vs AGR-Scr
Method: A grip strength meter (Columbus Instruments) was used to measure the forelimb grip strength as previously reported. The grid was attached to a force transducer to measure the maximum force applied by the mouse on the grid during the pull. The body weight of the mice was recorded prior to the test and the units of force were calculated in grams-of-force.

C57BL/6 J mice [2] = experiment: Run-to-exhaustion and sprint treadmill tests; assay type: in vivo, mouse
Method: Exhaustion treadmill running and sprint running were used to evaluate the physiological activity of the mice. The mice were repeatedly exercised twice weekly for 2 weeks using a treadmill (Ugo Basile, 57631, Stoelting). For the animal exercise, mice were placed on the horizontal treadmill starting at 5 m/min and kept on for about 10 min. The speed was then increased to 10 m/min for the remaining 30 min. Treadmill training was […] and followed a standardized protocol. When performing the speed test, the mice were placed on a treadmill with a 15° incline. We increased the speed from 6 m/min to 26 m/min at increments of 2 m/min, which each increment lasting 2 min. Mice were considered to have reached the point of exhaustion when they made contact with the grid for a period of time greater than 5 s. The running speed of the mice was recorded and the animals were returned to their cages once exhausted. For the sprint test: the sprint regimen consisted of mice warming up for 3 min at 6 m/min on a 0° incline, followed by a 2 min run at the same speed with a 15° incline. Subsequent runs were performed at a 15° incline. Speed was first increased to 14 m/min for 30 s, followed by 1.5 min of low speed running at 6 m/min. The speed was then increased to 18 m/min for 30 s. Afterwards, we increased the speed from 18 m/min to 24 m/min at 2 m/min increments, with each increment lasting 15 s […]. After that, the mice continued interval running at 6 m/min for 3 min, followed by an increase in the speed from 20 m/min to 32 m/min at 4 m/min increments, with each increment lasting 15 s. This pattern of exercise continued with subsequent intervals running at 6 m/min for 3 min, followed by a sharp increase in speed from 22 m/min to 34 m/min at 4 […], with each increment lasting 15 s. This pattern was repeated with increasing speed until the mice could no longer keep up and gave up on the grid.

C57BL/6 J mice on a HFD = experiment: HFD-induced obesity model: body, muscle and fat weights, body composition; assay type: in vivo, mouse; details: HFD-fed male mice; for body weight: n = 10
Method: as §1, §2, §3

[3] = HFD-fed mice, vs AGR-Scr, n = 5

N-terminal-ELTNEIPAELTNEIPA-Linker-5'-[2’-F-C][2’-F-U][2’-F-C][2’-F-U][2’-F-U][2’-F-U][2’-F-A][2’-F-U][2’-F-U][2’-F-U][2’-F-C][2’-F-U][2’-F-G][2’-F-A][2’-F-G][2’-F-C][2’-F-U][2’-F-U][2’-F-U][2’-F-C][2’-F-C][2’-F-U][2’-F-A][2’-F-U][2’-F-C][2’-F-U][2’-F-U][2’-F-U][2’-F-C][2’-F-C]-3' [AGR-H19-Rgof]
utrophin protein status (iPSC-SkMC): elevated | body weight (body composition analysis) (WT C57BL/6 J mice; vs AGR-Scr): increased body weight | fat percentage (body composition analysis) (WT C57BL/6 J mice; vs AGR-Scr): reduced | fat weight (body composition analysis) (WT C57BL/6 J mice; vs AGR-Scr): reduced | lean weight (body composition analysis) (WT C57BL/6 J mice; vs AGR-Scr): increased | fat weight (BAT, WAT, VAT) (WT C57BL/6 J mice; vs AGR-Scr or H19-Rgof): reduced fat weight | muscle weight (WT C57BL/6 J mice; vs AGR-Scr or H19-Rgof): increased muscle weight | force output, forelimb grip strength test (C57BL/6 J mice [1]; HFD-fed mice, n = 5): increased force output | forelimb grip strength, average force (C57BL/6 J mice [1]; WT male and female mice, n = 8): increased average force | running speed (C57BL/6 J mice [2]; [3]): elevated | total running time (C57BL/6 J mice [2]; [3]): elevated | running speed, treadmill exhaustion test (C57BL/6 J mice [2]; WT male and female mice, vs Scr-treated controls, n = 15): increased speed | maximum running speed, sprint interval treadmill (C57BL/6 J mice [2]; WT male and female mice, vs control, n = 10): elevated | body weight (C57BL/6 J mice on a HFD; 0.5 mg/kg i.p. every other day): significantly reduced | body weight (C57BL/6 J mice on a HFD; 1 mg/kg i.p. every other day): significantly reduced | fat percentage (body composition) (C57BL/6 J mice on a HFD; vs AGR-Scr, n = 5): reduced | fat weight (body composition) (C57BL/6 J mice on a HFD; vs AGR-Scr, n = 5): reduced | lean weight (body composition) (C57BL/6 J mice on a HFD; vs AGR-Scr, n = 5): increased | fat mass (C57BL/6 J mice on a HFD; vs AGR-Scr, n = 10, 9): reduced | skeletal muscle mass (C57BL/6 J mice on a HFD; vs AGR-Scr, n = 10, 9): increased
